From patent publication US20040063681A1, “Methods for using gold (III) complexes as anti-tumor and anti-HIV agents” (priority 2002, published 2004)
“And” between values parts separate entries of the source, which are not always exact repeats. Equal values may be shown once.

Columns and labels:
[1] = molecular target: T1, HIV-1 reverse transcriptase (Human immunodeficiency virus type 1 group M subtype B, UniProt P04585); assay: HIV-1 reverse transcriptase activity, ELISA method; format: biochemical
T1 construct: treatment of HIV-1 RT in Lysis buffer (2 ng, 128.7 μL) with Complex 1j
Protocol: HIV-1 reverse transcriptase activities were measured by an ELISA method (see Eberle et al, J. Virol. Methods, 40:347-356 (1992) performed by incubating the enzyme with digoxigenin-labeled deoxyuridin-5′-triphosphate (dUTP) and the biotin-labeled analogue during reverse transcription starting from the template/primer hybrid poly(A)•oligo(dT)15. After reverse transcription, the newly synthesized DNA was immobilized onto streptavidin-coated ELISA wells, and the incorporation of the dioxigenin-labeled dUTP was assayed by chemiluminescence method. For example, treatment of HIV-1 RT in Lysis buffer (2 ng, 128.7 μL) with Complex 1j (1.3 μL of […] stock solution) dissolved in TBS at 37° C. produced significant RT activity inhibition (˜95%) after 30 min incubation.

[2] = test system: Human Nasopharyngeal Carcinoma (SUNE1); assay: MTT cytotoxicity, SUNE1; format: cell-based; details: for IC50: MTT, growth inhibition
Description: (§1) Human promyelocytic leukemia (HL-60), human hepatocellular carcinoma (HepG2), Human cervix epitheloid carcinoma cells (HeLa) and human oral epidermoid carcinoma cells (KB-3-1), were obtained from American Type Culture Collection (ATCC) (Rockville, Md.). […] Cell culture flasks and 96 well microtitre plates were from Nalge Nunc hit. Culture medium, other medium constituents and phosphate buffered saline (PBS) were obtained from Gibco BRL (Rockville, Md.). Cell Proliferation Kit I (MTT) was purchased from Roche (Mannheim, Germany).

[3] = test system: Human Promyelocytic Leukemia (HL-60); assay: MTT cytotoxicity, HL-60; format: cell-based; details: growth inhibition
Description: (§2) Human promyelocytic leukemia (HL-60), human hepatocellular carcinoma (HepG2), Human cervix epitheloid carcinoma cells (HeLa) and human oral epidermoid carcinoma cells (KB-3-1), were obtained from American Type Culture Collection (ATCC) (Rockville, Md.). The multi-drug-resistant variant KB-V1 cell line was obtained by stepwise selections for vinblastine resistance as described by Shen et al., J. Biol. Chem. 261:7762-7770 (1986)], and was generously provided by Dr Michael Gottesman (NIH, Bethesda, Md.). Human nasopharyngeal carcinoma cells (SUNE1 and its cisplatin resistance variant, CNE1) were derived from poorly differentiated NPC in Chinese patients as described by Gu et al., Chin. J. Cancer 2:270-272 (1983), and were generously provided by Dr S. W. Tsao (The University of Hong Kong, Hong Kong, PRC). Cell culture flasks and 96 well microtitre plates were from Nalge Nunc hit. Culture medium, other medium constituents and phosphate buffered saline (PBS) were obtained from Gibco BRL (Rockville, Md.). Cell Proliferation Kit I (MTT) was purchased from Roche (Mannheim, Germany).
(§3) The anti-cancer activities of the gold(III) porphyrin complexes were evaluated toward some established human cancer cell lines: promyelocytic leukemia (HL-60), hepatocellular carcinoma (HepG2), cervix epitheloid carcinoma (HeLa), epidermoid carcinoma (KB-3-1) and its multi-drug resistant variant (KB-V1), nasopharyngeal carcinoma (SUNE1) and its cisplatin-resistant variant (CNE1). The experiments were carried out by following the MTT procedure (see Mosmann et al., J. Immunol. Methods 65:55-63 (1983). The IC50 values of the gold(III) porphyrin complexes together with that of cisplatin, and KAuCl4 are provided in Table 4a; and the IC50 values of the gold(III) Schiff-base and bis(pyridyl)carboxamide complexes are shown in Table 4b. The cytotoxicity profiles of some selected gold(III) porphyrin complexes toward SUNE1 and its cisplatin-resistant variant CNE1 are also shown in FIG. 7.

[4] = test system: Human Hepatocellular Carcinoma (HepG2); assay: MTT cytotoxicity, HepG2; format: cell-based; details: growth inhibition
Description: as §2, §3

[5] = test system: Human Nasopharyngeal Carcinoma (cisplatin resistance, CNE1); assay: MTT cytotoxicity, CNE1; format: cell-based; details: for IC50: MTT, growth inhibition, cisplatin resistant
Description: as §1

[6] = Electrochemical measurements (cyclic voltammetry); format: physicochemical; details: for Couple I (first reduction couple) / Couple II (second reduction couple): cyclic voltammetry, 0.1 M nBu4NPF6, glassy carbon, vs Cp2Fe^+/0; for ΔE1o (E^0Y − E^0H), couple I / ΔE2^0 (E^0Y − E^0H), couple II: relative to Y=H (Complex 1a)
Protocol: Electrochemical measurements. Electrochemical measurements were performed at room temperature after purging with nitrogen using 0.1 M tetrabutylammonium hexafluorophosphate (TBAP)/acetonitrile as supporting electrolyte. The working electrode was a glassy carbon (Atomergic Chemetal V25, geometric area of 0.35 cm^2) electrode and the counter electrode was platinum gauze. A nonaqueous Ag/AgNO3 (0.1 M in acetonitrile) reference electrode was contained in a separate compartment connected to the test solution via fine sintered glass disks. The ferrocenium/ferrocene couple was used as the internal standard. The redox properties of the gold(III) porphyrin complexes in non-aqueous medium (CH2Cl2 with 0.1 M nBu4NPF6) have been studied by cyclic voltammetry with glassy carbon and platinum as the working and counter electrodes, respectively. […] The effect of para-substitution on the electrochemical potentials has been examined by Hammett correlation analysis.

[7] = test system: Human Cervix Epitheloid Carcinoma (HeLa); assay: MTT cytotoxicity, HeLa; format: cell-based; details: for IC50: MTT, growth inhibition
Description: as §1

[8] = test system: Human Oral Epidermoid Carcinoma (multi-drug resistance, KB-V-1); assay: MTT cytotoxicity, KB-V-1; format: cell-based; details: for IC50: MTT, growth inhibition, multi-drug resistant
Description: as §2
The anti-cancer activities of the gold(III) porphyrin complexes were evaluated toward some established human cancer cell lines: promyelocytic leukemia (HL-60), hepatocellular carcinoma (HepG2), cervix epitheloid carcinoma (HeLa), epidermoid carcinoma (KB-3-1) and its multi-drug resistant variant (KB-V1), nasopharyngeal carcinoma (SUNE1) and its cisplatin-resistant variant (CNE1).

[9] = test system: Human Oral Epidermoid Carcinoma (KB-3-1); assay: MTT cytotoxicity, KB-3-1; format: cell-based; details: for IC50: MTT, growth inhibition
Description: as §1

[10] = test system: calf thymus DNA; assay: UV-vis absorption titration with calf thymus DNA; format: binding; details: for hypochromicity / intrinsic binding constant (Kb): Tris buffer
Protocol: The calf thymus DNA was purchased from Sigma-Aldrich Chemical Co. and was purified by phenol-chloroform extraction. The DNA was dissolved in buffer (5 mM Tris, 5 mM NaCl, pH 7.2). The concentration (per base pair) of calf thymus DNA was determined spectrophotometrically on the basic of ε260, 13,200 M^−1cm^−1bp.
Absorption Titration. The binding interaction of the gold(III) porphyrins to duplex DNA has been studied by UV-vis spectroscopy.
where [ctDNA] is the concentration of DNA, Δεap═|εA−εB| in which εA=Aobs/[complex], and Δε=|εB−εF|. εB and εF correspond to the extinction coefficient of DNA-bound gold(III) porphyrin and the free gold(III) porphyrins, respectively.
The effect of temperature on the intrinsic binding constants was investigated. Using the van't Hoff equation (2): […]

| Compound | IC50 ratio [cisplatin/gold (III) porphyrin complexes] SUNE1 [2] | IC50 [2] [nM] | IC50 [3] [nM] | IC50 [4] [nM] | IC50 ratio [cisplatin/gold (III) porphyrin complexes] CNE1 [5] | IC50 [5] [nM] | Couple I (first reduction couple) [6] [V] | Couple II (second reduction couple) [6] [V] | ΔE1o (E^0Y − E^0H), couple I [6] | ΔE2^0 (E^0Y − E^0H), couple II [6] | IC50 ratio [cisplatin/gold (III) porphyrin complexes] HeLa [7] | IC50 [7] [nM] | IC50 ratio [cisplatin/gold (III) porphyrin complexes] KB-V1 [8] | IC50 [8] [nM] | IC50 ratio [cisplatin/gold (III) porphyrin complexes] KB-3-1 [9] | IC50 [9] [nM] | further results |
| --- | --- | --- | --- | --- | --- | --- | --- | --- | --- | --- | --- | --- | --- | --- | --- | --- | --- |
| Cc1cn(C2CC(N=[N+]=[N-])C(CO)O2)c(=O)[nH]c1=O (stereo not shown) [AZT, 3′-azido-2′,3′-dideoxythymidine] | – | – | – | – | – | – | – | – | – | – | – | – | – | – | – | – | inhibition at 0.008 µM ([1]; AZT 8 nM alone, read-out: HIV-1 RT enzyme inhibition, alone): 17 to 39%; IC50 ([1]; ELISA, mean ± SE of at least three determinations, read-out: IC50 HIV-1 RT): 69 ± 8 nM |
| COc1ccc(-c2c3nc(c(-c4ccc(OC)cc4)c4ccc([n-]4)c(-c4ccc(OC)cc4)c4nc(c(-c5ccc(OC)cc5)c5ccc2[n-]5)C=C4)C=C3)cc1.[Au+3].[Cl-] [Complex 1c] | 18.5 | 680 | 880 | 760 | 53.0 | 770 | −1.02 | −1.51 | −0.02 V | −0.02 V | 17.0 | 660 | – | – | – | – | – |
| Brc1ccc(-c2c3nc(c(-c4ccc(Br)cc4)c4ccc([n-]4)c(-c4ccc(Br)cc4)c4nc(c(-c5ccc(Br)cc5)c5ccc2[n-]5)C=C4)C=C3)cc1.[Au+3].[Cl-] [Complex 1d] | 17.0 | 740 | 1120 | 1210 | 41.6 | 980 | −0.97 | −1.45 | +0.03 V | +0.03 V | 12.6 | 890 | 8.96 | 640 | 10.23 | 1290 | – |
| Clc1ccc(-c2c3nc(c(-c4ccc(Cl)cc4)c4ccc([n-]4)c(-c4ccc(Cl)cc4)c4nc(c(-c5ccc(Cl)cc5)c5ccc2[n-]5)C=C4)C=C3)cc1.[Au+3].[Cl-] [Complex 1e] | 37.1 | 340 | 870 | 920 | 99.5 | 410 | −0.96 | −1.44 | +0.44 V | +0.44 V | 16.2 | 690 | 20.4 | 230 | 26.4 | 500 | – |
| COc1cc(-c2c3nc(c(-c4cc(OC)c(OC)c(OC)c4)c4ccc([n-]4)c(-c4cc(OC)c(OC)c(OC)c4)c4nc(c(-c5cc(OC)c(OC)c(OC)c5)c5ccc2[n-]5)C=C4)C=C3)cc(OC)c1OC.[Au+3].[Cl-] [Complex 1f] | 18.5 | 680 | 740 | 1830 | 55.9 | 730 | – | – | – | – | 16.5 | 680 | 5.62 | 710 | 15.1 | 870 | – |
| CCc1c(CC)c2[n]3c1C=c1c(CC)c(CC)c4[n]1[Au]31[n]3c(c(CC)c(CC)c3C=c3c(CC)c(CC)c([n]31)=C2)C=4 [Complex 1h] | – | – | – | – | – | – | – | – | – | – | – | – | – | – | – | – | hypochromicity ([10]; 291.4 K): 30.1%; intrinsic binding constant (Kb) ([10]; 291.4 K): 4.14 × 10^6 dm^3mol^−1; hypochromicity ([10]; 296.8 K): 29.2%; intrinsic binding constant (Kb) ([10]; 296.8 K): 2.73 × 10^6 dm^3mol^−1; hypochromicity ([10]; 302.2 K): 28.0%; intrinsic binding constant (Kb) ([10]; 302.2 K): 1.51 × 10^6 dm^3mol^−1; hypochromicity ([10]; 305.5 K): 26.1%; intrinsic binding constant (Kb) ([10]; 305.5 K): 1.27 × 10^6 dm^3mol^−1; hypochromicity ([10]; 311.2 K): 24.4%; intrinsic binding constant (Kb) ([10]; 311.2 K): 0.96 × 10^6 dm^3mol^−1; ΔS° ([10]; binding to calf thymus DNA, van't Hoff analysis): −17.3 calmol^−1K^−1 and −17.3 ± 0.7 calmol^−1K^−1; ΔG° (298 K) ([10]; binding to calf thymus DNA, van't Hoff analysis, 298 K): −8.2 ± 0.7 |
